The target of this assay is Dual specificity mitogen-activated protein kinase kinase 1 (Homo sapiens, UniProt Q02750). The assay is described as follows: Inhibition of MEK1 (unknown origin).

The IC50 is the concentration at which inhibition is half-maximal. Low readings indicate greater potency in that assay, high ones weaker potency in that assay.

Chain of Dual specificity mitogen-activated protein kinase kinase 1 (Q02750 whole entry): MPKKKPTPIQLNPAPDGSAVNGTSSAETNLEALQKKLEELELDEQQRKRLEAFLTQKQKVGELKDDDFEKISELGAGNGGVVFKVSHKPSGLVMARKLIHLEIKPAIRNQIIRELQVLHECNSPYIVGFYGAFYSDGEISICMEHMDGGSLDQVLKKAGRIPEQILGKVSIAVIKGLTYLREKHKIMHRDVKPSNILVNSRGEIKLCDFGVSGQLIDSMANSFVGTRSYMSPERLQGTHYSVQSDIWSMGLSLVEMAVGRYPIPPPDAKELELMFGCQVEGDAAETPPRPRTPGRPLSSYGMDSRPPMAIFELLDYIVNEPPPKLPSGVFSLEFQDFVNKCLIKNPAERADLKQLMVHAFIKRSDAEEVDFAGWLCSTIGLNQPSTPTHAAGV

Molecule `O=C(NOCCCO)c1ccc(F)c(F)c1Nc1ccc(F)cc1F` displayed an IC50 of 120 nM. The same measure for `O=C(NOCCCO)c1ccc(F)c(F)c1Nc1ccc(Br)cc1F`: 7.7 nM; for `O=C(NOCCCO)c1ccc(F)c(F)c1Nc1ccc(I)cc1F`: 2 nM. Regarding `O=C(NOCCCO)c1ccc(F)c(F)c1Nc1ccc(Cl)cc1F`, the IC50 amounted to 26 nM.

For the origin of these results see ChEMBL document CHEMBL4316600, “Electrostatic Complementarity as a Fast and Effective Tool to Optimize Binding and Selectivity of Protein-Ligand Complexes” (J Med Chem, 2019).
